In PubChem BioAssay (NCI):
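Cultured in 96-well plates, cells were exposed to test compound for 48 hours across five concentrations. TGI: concentration producing complete growth inhibition.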

What was measured:
Assay in all cases: growth of human tumour cells (NCI), 48 h
HCC-2998 colon = test system: HCC-2998 colon
K-562 leukemia = test system: K-562 leukemia
LOX IMVI melanoma = test system: LOX IMVI melanoma
MDA-MB-231 breast = test system: MDA-MB-231 breast
OVCAR-4 ovarian = test system: OVCAR-4 ovarian
RXF 393 renal = test system: RXF 393 renal
SK-MEL-2 melanoma = test system: SK-MEL-2 melanoma
T-47D breast = test system: T-47D breast

SMILES	TGI (HCC-2998 colon)	TGI (K-562 leukemia)	TGI (LOX IMVI melanoma)	TGI (MDA-MB-231 breast)	TGI (OVCAR-4 ovarian)	TGI (RXF 393 renal)	TGI (SK-MEL-2 melanoma)	TGI (T-47D breast)
COC(=O)c1ccccc1/C=C1\Cc2ccc3ccccc3c2C1C (configuration not stated)	> 100 µM	> 100 µM	> 100 µM	> 100 µM	> 100 µM	> 100 µM	> 100 µM	69 µM
O=S(=O)(O)c1ccc2c(N=Nc3c(O)ccc4ccccc34)cccc2c1		98.1 µM	> 100 µM	> 100 µM	> 100 µM	> 100 µM	> 100 µM	> 100 µM
CC1=NNC(=O)[C@H]2[C@H]1CCC1[C@@H]2CC[C@]2(C)[C@@H](O)CC[C@@H]12 (some centres not stated)	> 100 µM	> 100 µM	> 100 µM	> 100 µM	> 100 µM	> 100 µM	> 100 µM	> 100 µM
CON(C)C(=O)C(C)NC(=O)OC(C)(C)C (configuration not stated)	> 100 µM	> 100 µM				> 100 µM		> 100 µM
O=C([O-])C1([n+]2c(-c3ccccc3)cc(-c3ccccc3)cc2-c2ccccc2)CC1	> 100 µM	> 100 µM	> 100 µM		> 100 µM	> 100 µM		45.2 µM
Cc1cc2c3c(c1)CCCN3CCC2	> 10 µM	> 10 µM	> 10 µM	> 10 µM	> 10 µM	> 10 µM	> 10 µM	> 10 µM
O=C(/C=C/c1cccs1)c1ccc([N+](=O)[O-])cc1	> 100 µM	> 100 µM	> 100 µM	> 100 µM	> 100 µM		> 100 µM	> 100 µM
N#C[C@H](C(=O)c1ccccc1F)c1nc2ccccc2[nH]1	> 100 µM	> 100 µM	> 100 µM	> 100 µM	> 100 µM	> 100 µM	> 100 µM	> 100 µM
O=S(=O)(/N=C(\NO)Nc1ccc(Cl)cc1)c1cc(S(=O)(=O)c2ccccc2)cs1	27.6 µM	31.6 µM	39 µM	56.1 µM	57.3 µM	31 µM	45.9 µM	44.3 µM
COCCOCCOCCC(=O)NC1CC2CCC1(C)C2(C)C (configuration not stated)	> 100 µM	> 100 µM	> 100 µM	> 100 µM	> 100 µM	> 100 µM		
COc1cccc(N2C(=O)C3CC(CC(C)(C)C)c4c([nH]c5ccccc45)C3C2=O)c1 (configuration not stated)	> 10 µM	> 10 µM	> 10 µM	> 10 µM	> 10 µM	> 10 µM	> 10 µM	> 10 µM
CC(=O)OC1CC[C@@]2(C)C(=CC[C@@H]3[C@@H]2CC[C@]2(C)C(OC(C)=O)[C@H](n4ccnc4)C[C@@H]32)C1 (some centres not stated)		86.3 µM	37.7 µM	> 100 µM	46.6 µM	> 100 µM	34.2 µM	
C=CCCCCCCCCC(=O)ON(Cc1ccc(O)c(OC)c1)C(=O)C(F)(F)F	> 100 µM	> 100 µM	> 100 µM	> 100 µM	> 100 µM	> 100 µM		> 100 µM
O=C(/C=C/c1ccc(Cl)cc1)c1ccc(Cl)s1	47.3 µM	> 100 µM	26.2 µM	> 100 µM	> 100 µM	85.8 µM		> 100 µM
Nc1nc2c(c(=O)[nH]1)NC(CCNc1ccc(C(=O)O)cc1)CN2 (configuration not stated)		> 100 µM	> 100 µM	> 100 µM	> 100 µM	> 100 µM	> 100 µM	> 100 µM
O=C1CC(=O)NC(=NN2C(=O)/C(=C/c3ccc(Cl)cc3)N=C2c2ccccc2)N1	24.2 µM	28 µM		35.6 µM	22.5 µM	30.1 µM	31.1 µM	> 100 µM
CC1(CCCCO)C=CC(S(=O)(=O)c2ccccc2)CC1 (configuration not stated)	19.6 µM	11.6 µM	3.65 µM	16.4 µM	22.8 µM	17 µM	23.1 µM	
CO[C@]12C[C@@H](CNC(=O)c3cc(Br)c[nH]3)O[C@H]1NC(=O)N2	> 100 µM	> 100 µM		> 100 µM	> 100 µM		> 100 µM	> 100 µM
COc1ccc(/C=N/n2c(Cc3ccccc3)n[nH]c2=O)cc1	> 100 µM	> 100 µM		> 100 µM	> 100 µM		> 100 µM	> 100 µM
O=C1NC2=NN=C(c3ccc(Br)cc3)CN2NC12c1ccccc1-c1ccccc12	> 100 µM	> 100 µM	> 100 µM	> 100 µM	> 100 µM	> 100 µM	> 100 µM	
CCOC(=O)[C@@H]1C[C@@H]1c1ccc(O)c(O)c1	67.7 µM	32.9 µM		27.8 µM		54 µM	68.8 µM	51.7 µM
Brc1ccc(-c2nc(-c3ccc(Br)cc3)n(-c3ccccc3)n2)cc1			> 100 µM	> 100 µM	> 100 µM		> 100 µM	> 100 µM
O=C1c2ccccc2/C=C\C(c2ccccc2)=N/N1c1ccccc1Cl	> 100 µM	> 100 µM	> 100 µM	49.2 µM	97.2 µM	47.7 µM	> 100 µM	
CC(N)=O.[Cl][Pt][Cl].[NH-]c1ccn(C2OC(CO)C(O)C2O)c(=O)n1 (configuration not stated)		> 100 µM	> 100 µM	> 100 µM	> 100 µM	> 100 µM	> 100 µM	> 100 µM
CC1=CC(=O)c2c(O)c3c(c(O)c2C1=O)C1C(O)C(C3=O)C23C(=O)c4c(O)c(C)cc(O)c4C(O)=C2C(=O)CC(O)C13 (configuration not stated)	10.2 µM	> 100 µM	4.7 µM	9.89 µM	28 µM		3.79 µM	5.75 µM
CC(C)CCCC(C)[C@H]1CCC2[C@@H]3CCC4Cc5nc6c(nc5C[C@]4(C)C3CC[C@@]21C)CC1CC[C@@H]2C(CC[C@@]3(C)C2CC[C@@H]3O)[C@@]1(C)C6 (some centres not stated)		> 100 µM	> 100 µM	> 100 µM	> 100 µM	> 100 µM	> 100 µM	> 100 µM
N=C(N)c1ccc(N=Nc2c(O)ccc3cc(O)ccc23)cc1	> 100 µM	> 100 µM		> 100 µM	> 100 µM	> 100 µM	> 100 µM	
CCCCOc1ccc(S(=O)(=O)/N=C(\N)Nc2ccc(Cl)cc2)cc1		37.4 µM	32.8 µM	29.7 µM	26.5 µM	32.3 µM	31.6 µM	29.1 µM
CCOP(=O)(/C=C\n1ccc(=O)[nH]c1=O)OCC		> 100 µM	> 100 µM	> 100 µM	> 100 µM	> 100 µM	> 100 µM	> 100 µM
